Assay results reported in patent publication US11896678B2, “Compositions and methods for treatment of peroxisome proliferator-activated receptor gamma (PPARG) activated cancer” (THE BROAD INSTITUTE, INC., priority 2017, dated 2024).
Ends that are not written are not given here.

Experiments:
[1] = biological target: T1, PPARG ligand-binding domain (Homo sapiens, UniProt P37231); assay: TR-FRET PPARG competition binding assay; conditions: maximal concentration tested 10 uM
T1 sequence (P37231 238-503 limits assumed): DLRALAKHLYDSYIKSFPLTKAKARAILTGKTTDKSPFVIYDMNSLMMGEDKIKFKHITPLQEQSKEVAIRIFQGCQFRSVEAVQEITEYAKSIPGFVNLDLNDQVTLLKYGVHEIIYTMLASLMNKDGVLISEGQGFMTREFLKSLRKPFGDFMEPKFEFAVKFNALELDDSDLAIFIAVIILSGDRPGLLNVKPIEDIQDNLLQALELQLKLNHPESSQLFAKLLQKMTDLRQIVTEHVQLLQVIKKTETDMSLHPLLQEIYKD
Procedure: To evaluate binding affinity, a PPARG competition binding assay that measures displacement of a fluorescent PPARG ligand from the PPARG ligand-binding domain was used.
Biochemical Assays: The LanthaScreen TR-FRET PPAR gamma Competitive Binding Assay and LanthaScreen TR-FRET PPAR gamma Coactivator Assay were obtained from ThermoFisher Scientific. Assays were performed according to the manufacturer's protocol. In order to assay inverse-agonism, the Coactivator assay was modified by the use of fluorescently labeled co-repressor peptides (NCoR1 ID2 peptide, SMRT ID2 peptide) to convert from agonist mode (coactivator recruitment) into inverse-agonist mode (corepressor recruitment).

[2] = biological target: T2, PPARG ligand-binding domain - TRAP220/MED1 coactivator peptide (Homo sapiens, UniProt P37231); assay: TR-FRET coactivator assay, TRAP220/MED1 peptide; format: biochemical
T2 construct: purchased ThermoFisher Scientific
T2 sequence (P37231 238-503 limits assumed): T1 sequence (P37231 238-503 limits assumed)

PPARG = biological target: T3, PPARG (Homo sapiens, UniProt P37231); assay: RT112/84 FABP4-NLucP reporter gene assay, unstimulated; format: cell-based
T3 construct: endogenous in cells; host or cells: RT112/84 bladder cancer cells (FABP4-NLucP knock-in clone)
T3 sequence (P37231 1-477 isoform P37231-2): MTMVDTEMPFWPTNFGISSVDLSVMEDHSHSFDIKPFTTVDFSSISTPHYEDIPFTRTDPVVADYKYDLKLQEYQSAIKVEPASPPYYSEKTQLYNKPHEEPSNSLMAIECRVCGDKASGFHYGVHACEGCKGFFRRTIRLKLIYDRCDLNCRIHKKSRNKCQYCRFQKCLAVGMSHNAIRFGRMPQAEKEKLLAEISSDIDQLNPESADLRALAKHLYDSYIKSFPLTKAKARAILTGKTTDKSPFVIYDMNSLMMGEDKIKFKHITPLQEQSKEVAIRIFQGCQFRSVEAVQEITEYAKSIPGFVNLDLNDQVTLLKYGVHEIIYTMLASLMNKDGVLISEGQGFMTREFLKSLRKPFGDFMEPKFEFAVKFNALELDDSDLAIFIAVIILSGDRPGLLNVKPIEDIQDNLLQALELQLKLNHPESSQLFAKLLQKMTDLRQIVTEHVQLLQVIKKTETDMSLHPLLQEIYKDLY
Source text: Next, a PPARG reporter cell line was engineered to enable higher throughput assays to evaluate PPARG transactivation. Briefly, a destabilized NanoLuc luciferase reporter gene was inserted into the 3′-UTR of the FABP4 gene in the RT112/84 bladder cancer cell line using CRISPR/Cas9 mediated homology-directed repair (FIG. 4A).
RT112-FABP4-NLucP Reporter Gene Assay: Reporter cell line was generated by engineering NanoLuc gene into the 3′ UTR of FABP4 in RT112/84 cells using CRISPR/Cas9 guided genome engineering. Single cell clones were generated and the clone with the widest dynamic range selected for use. Assays were performed by seeding 384-well plates with ˜10,000 cells per well in MEMalpha containing 10% FBS and dosing compounds at indicated concentration using HP D300 digital dispenser (HP/Tecan). 18-24 hours after dosing with compound, cells were assayed using NanoGlo Luciferase Assay Reagent (Promega Madison, WI) and plates were read using EnVision Multilabel Reader (PerkinElmer Waltham, MA).

bladder cancer = conditions: rodents; cited from earlier work
UM-UC-9 cells [3] = assay: Direct cell counting dose-response proliferation assay; format: cell-based, human
Procedure: To determine whether PPARG modulators affect the proliferation and/or viability of PPARG-activated bladder cancer cell lines, a direct cell counting-based assay was performed. This assay likely avoids potential artifacts associated with the use of an ATP content-based assay, given that PPAR modulators are known to regulate cellular metabolic activity. […] These IC50 values align well with the calculated IC50s from both the cell-based reporter gene assay (FIG. 8A) and the biochemical corepressor assay (FIG. 8D).
(§1) Proliferation Assays: To enable cell-counting experiments, cell lines were transduced with a lentiviral vector encoding nuclear-targeted GFP, TagGFP2-H2B (Evrogen), and stable pools generated following selection for puromycin resistance. Cell lines were maintained for at least 7 days following selection prior to expansion and seeding into 96- or 384-well plates for further analysis. For kinetic proliferation assays, 96-well plates (n 1% 4 per condition) were imaged and counted every two hours using IncuCyte Zoom (Essen BioScience). Media and compounds were replaced approximately every 3-4 days. For endpoint assays to measure dose-response, cells were plated in 384-well plates, dosed with compound, and upon reaching approximately 70% to 90% confluence in control wells, cells were either counted using fluorescence imaging (Incu-Cyte Zoom) or incubated with CyQuant (Thermo Fisher) at the indicated time and plates were read with a fluorescent plate reader.

[4] = system: PPARG-activated pancreatic and colorectal cancer cell lines; assay: Kinetic proliferation assay in pancreatic and colorectal cancer cell lines; format: cell-based; conditions: 500 nM
Source text: To enable cell-counting, cell lines were transduced with a lentiviral vector encoding nuclear-targeted GFP (TagGFP2-H2B), and stable pools generated following selection for puromycin-resistance. Cell lines were maintained for at least 7 days following selection prior to expansion and seeding into 96-well plates for further analysis. For kinetic proliferation assays, 96-well plates were imaged in phase-contrast and green fluorescence mode every two hours using IncuCyte Zoom (Essen BioScience, Ann Arbor MI). Using IncuCyte software, the number of fluorescent nuclei were counted to monitor quantitative changes in cell number over time. Media and compounds were replaced approximately every 3-4 days.
DMSO treatment was also included as a vehicle control.

[5] = system: PPARG-activated bladder cancer cell lines; assay: Proliferation assays in PPARG-activated bladder cancer cell lines; format: cell-based, human; conditions: 100 nM-500 nM
Procedure: A panel of bladder cancer cell lines with PPARG modulators in colony formation assays was then tested (FIG. 10), kinetic proliferation assays (IncuCyte Zoom; Essen Bioscience) using cell lines treated with a single concentration of compound (100 nM-500 nM), and end-point dose-response assays (CellTiter Glo or CyQuant).
This assay was expanded to include an additional 8 representative bladder cancer cell lines, including cell lines with PPARG amplification, RXRA p.S427F mutation, activated gene signature, and control cell lines with low level expression of PPARG and target genes. […] Representative data for the UM-UC-9 cell line are shown in FIG. 6B, and is tabulated for the tested bladder cancer cell lines in Table 1. […] This significant (P<0.01) preferential sensitivity to PPARG inverse-agonists, but not antagonists, is maintained across all of the PPARG-activated cell lines in the panel, including the RXRA p.S427F cell line, HT-1197 (41), the PPARG-amplified cell lines, 5637 and UM-UC-9, and the PPARG activation gene signature cell lines Cal29, UM-UC-1, and RT112/84 (FIG. 12). […] Similar results were obtained with these cell lines in parallel studies using clonogenic assays to quantify colony-forming ability (FIG. 10).
as §1

[6] = system: PPARG target gene expression in UM-UC-9 cells; assay: RNA sequencing of UM-UC-9 cells after 7 days dosing; format: cell-based, human; conditions: 500 nmol/L
Procedure: Next, the effects of long-term dosing on the transcriptional profile of the PPARG-amplified cell line, UMUC-9, were evaluated. Briefly, UM-UC-9 cells were treated for 7 days with various PPARG modulators dosed at 500 nmol/L and gene expression was analyzed using RNA sequencing. […] Genes that were more abundantly expressed upon treatment with inverse-agonists included ALPP, SPINK4, and ALDH1A3 (FIG. 5). […] In summary, the in vitro pharmacological properties of known PPARG modulators have been characterized and two distinct chemotypes with bona-fide inverse-agonist activity in PPARG-activated bladder cancer cells were identified.
RNAseq analysis: RNA was isolated using RNEasy (Qiagen) and an RNAseq library was prepared using NEBNext Ultra Directional RNA Library Prep Kit for Illumina and NEBNext Multiplex Oligos for Illumina (New England BioLabs). RNAseq sequencing was performed using an Illumina MiSeq instrument according to the manufacturers protocol. Sequence data was analyzed using Firehose (Broad Institute, Cambridge MA) to map transcripts and calculate RPKM (SW780 cDNA expression) or TPM (UM-UC-9).
For UM-UC-9 RNAseq experiment, the resulting reads were used to calculate transcript abundance in units of TPM (transcripts per million) (18), which were then adjusted using TMM normalization (19) for comparison. […]

[7] = biological target: T4, PPARG ligand-binding domain - SMRT/NCOR2 corepressor peptide (Homo sapiens, UniProt P37231); assay: TR-FRET corepressor assay, SMRT/NCOR2 peptide; format: biochemical
T4 construct: purchased ThermoFisher Scientific
T4 sequence (P37231 238-503 limits assumed): T1 sequence (P37231 238-503 limits assumed)
Procedure: (§2) To evaluate inverse-agonism, a TR-FRET PPARG co-repressor assay (ThermoFisher) that measures recruitment of a fluorescent NCOR1 or NCOR2 corepressor peptide to the PPARG ligand-binding domain was used (ThermoFisher).
To determine effects on interactions between PPARG and coregulators, PPARG modulators were tested in two TR-FRET biochemical interaction assays for agonism and inverse-agonism. Agonism was quantitated using a coactivator assay, which measured the interaction between the PPARG ligand-binding domain and a fluorescently-labeled peptide from TRAP220/MED1. […] To evaluate inverse-agonism biochemically, ligand-dependent interactions were measured between PPARG ligand-binding domain and corepressor peptides from NCoR/NCOR1 and SMRT/NCOR2.

UM-UC-9 cells [8] = assay: Kinetic proliferation assay (IncuCyte), percent of DMSO control; format: cell-based, human; conditions: 100 nmol/L; DMSO control at 50% confluency
Source text: This assay was expanded to include an additional 8 representative bladder cancer cell lines, including cell lines with PPARG amplification, RXRA p.S427F mutation, activated gene signature, and control cell lines with low level expression of PPARG and target genes. […] Representative data for the UM-UC-9 cell line are shown in FIG. 6B, and is tabulated for the tested bladder cancer cell lines in Table 1. […] Similar results were obtained with these cell lines in parallel studies using clonogenic assays to quantify colony-forming ability (FIG. 10).
as §1, with “Cell lines were maintained for at least 7 days following selection prior to expansion and seeding into 96- or 384-well plates for further analysis.” left out, “Media and compounds were replaced approximately every 3-4 days.” left out

5637 cells = assay: Proliferation assay in PPARG-amplified 5637 cells; format: cell-based; conditions: Homo sapiens; data not shown
Procedure: To determine if treatment of PPARG-activated bladder cancer cell lines with PPARG modulators impacted viability, a variety of compounds were tested in proliferation assays.

[9] = biological target: T5, PPARG ligand-binding domain - NCoR/NCOR1 corepressor peptide (Homo sapiens, UniProt P37231); assay: TR-FRET corepressor assay, NCoR/NCOR1 peptide; format: biochemical; conditions: data not shown
T5 construct: purchased ThermoFisher Scientific
T5 sequence (P37231 238-503 limits assumed): T1 sequence (P37231 238-503 limits assumed)
Procedure: as §2
In addition to the PPARG-NCOR2 interaction assay described above, interactions between PPARG and a peptide from the corepressor NCOR1 were measured.

[10] = biological target: Terbium-labeled PPARG ligand binding domain (PPARG-LBD) (Macaca mulatta (Rhesus macaque)) (UniProt O18924); assay: TR-FRET corepressor assay, PPARG-LBD and SMRT/NCOR2 peptide; with inverse-agonists T0070907 and SR10221
[11] = biological target: Terbium-labeled PPARG ligand binding domain (PPARG-LBD) (Macaca mulatta (Rhesus macaque)) (UniProt O18924); assay: TR-FRET corepressor assay, PPARG-LBD and SMRT/NCOR2 peptide; with agonists rosiglitazone, tesaglitazar and GW9129 (so in the source)
[12] = biological target: Terbium-labeled PPARG ligand binding domain (PPARG-LBD) (Macaca mulatta (Rhesus macaque)) (UniProt O18924); assay: TR-FRET corepressor assay, PPARG-LBD and SMRT/NCOR2 peptide; with antagonists GW9662 and SR2595
[13] = biological target: Terbium-labeled PPARG ligand binding domain (PPARG-LBD) (Macaca mulatta (Rhesus macaque)) (UniProt O18924); assay: TR-FRET PPARG-NCOR1 interaction assay; with T0070907 (data not shown)
[14] = biological target: Terbium-labeled PPARG ligand binding domain (PPARG-LBD) (Macaca mulatta (Rhesus macaque)) (UniProt O18924); assay: TR-FRET PPARG-NCOR1 interaction assay; with SR10221 (data not shown)
[15] = biological target: Terbium-labeled PPARG ligand binding domain (PPARG-LBD) (Macaca mulatta (Rhesus macaque)) (UniProt O18924); assay: TR-FRET PPARG-NCOR1 interaction assay; with GW9662 (data not shown)

COP(=O)(OC)OC(c1ccc(Cl)cc1)P(=O)(OC)OC (stereo not drawn) [SR202, Mifobate]
binding to PPARG LBD, competition with fluorescent ligand [1]: weak activity
effect in coactivator assay [2]: minimal effect
effect on unstimulated reporter (PPARG): minimal detectable effect

CCc1ccc(CCOc2ccc(CC3SC(=O)NC3=O)cc2)nc1 (stereo not drawn) [pioglitazone]
carcinogenic effect, bladder cancer (bladder cancer): carcinogenic effect in rodents was also observed

CC(C)(c1ccc(OCC2CO2)cc1)c1ccc(OCC2CO2)cc1 (stereo not drawn) [BADGE, Bisphenol A diglycidyl ether]
binding to PPARG LBD, competition with fluorescent ligand [1]: weak activity
effect in coactivator assay [2]: minimal effect
effect on unstimulated reporter (PPARG): minimal detectable effect

Cc1c(C)n(Cc2ccc(-c3ccccc3C(=O)O)cc2)c2ccc(C(=O)N[C@@H](C)c3ccc(C(C)(C)C)cc3)cc12 [SR2595]
effect on cell proliferation compared with DMSO control (UM-UC-9 cells [3]): no significant effects
sensitivity of cell lines [4]: not sensitive
sensitivity of cell lines [5]: not sensitive
hierarchical clustering of gene expression signatures [6]: cluster with vehicle-treated controls

CCC(=O)NC[C@H](Cc1ccc(OCCc2nc(-c3ccccc3)oc2C)cc1)N/C(C)=C\C(=O)c1ccc(C(F)(F)F)cc1 [GW6471]
effect on unstimulated reporter (PPARG): modest inhibitory effect

CC1=C2C=C(C(=O)N[C@@H](C)c3ccc(C(C)(C)C)cc3)C=CC2N(Cc2ccc(Cl)c(O[C@@H](C)C(=O)O)c2)C1C (stereo partly drawn) [SR10221]
effect on PPARG-NCOR2 interaction [7]: induce interaction between PPARG and NCOR2
effect on cell proliferation compared with DMSO control (UM-UC-9 cells [3]): significantly reduced proliferation
IC50 (UM-UC-9 cells [3]; Homo sapiens, UM-UC-9, read-out: calculated IC50, proliferation): 16 nM
sensitivity of cell lines [4]: preferentially sensitive
reduction of proliferation relative to control (UM-UC-9 cells [8]): 80%
IC50 (5637 cells): 20 to 30 nM
induced signal [9]: less than 2 fold
sensitivity of cell lines [5]: preferentially sensitive

CCCCCOc1cc2c(cc1-c1cc(/C=C/C(=O)O)ccc1O)C(C)(C)CCC2(C)C [UVI3003]
effect in coactivator assay [2]: minimal effect

HASTNMGLEAIIRKALMGKYDQW (also: fluorescein-labeled, site not given here) [fluorescein-labeled SMRT ID2 corepressor peptide (SMRT/NCOR2)]
fold increase in signal [10]: 3 to 6 fold
decrease in signal [11]: 50 to 60%
fold increase in signal [12]: 1.7 fold

DPASNLGLEDIIRKALMGSFDDK (also: fluorescently labeled, site not given here) [fluorescently labeled NCoR1 ID2 corepressor peptide (NCoR/NCOR1)]
fold induction of signal [13]: 6 to 8 fold
fold induction of signal [14]: < 2 fold
fold induction of signal [15]: 2.5 fold
